# From patent US9952217B2, “Anti-HBc quantitative detection method and uses thereof in monitoring and controlling disease progression of chronic hepatitis B patient and in predicting therapeutic effect” (priority 2012, dated 2018)
# System: hepatitis B virus
# Experiment: Adefovir dipivoxil therapy of HBeAg positive chronic hepatitis B patients (Cohort A)
# Type: in vivo, human
# Procedure: Patient cohort A: 49 HBeAg positive patients, all patients accepted therapy of adefovir dipivoxil (10 mg/day), for 96 weeks in total, and were follow-up visited for 12 weeks after stop of therapy.
# The above patients before therapy all met the criteria of disease adaptable for therapy as recommended by the Guide of Clinical Management of Chronic Hepatitis B of APASL: HBsAg was positive for consecutive 1 year or more, HBeAg was positive and anti-HBe was negative, serum ALT level was higher than 2 times of ULN; the patients were chosen to exclude possibility of having accompanied infection of hepatitis C virus (HCV), human immunodeficiency virus (HIV), hepatitis D virus (HDV), hepatitis E virus (HEV), and have no clinical medicine evidence of having accompanied autoimmune or metabolic liver diseases.
# It was performed according to the method described in section 4.2 of Example 4.
# It was performed according to the method described in section 4.3 of Example 4.
# Main therapeutic end was defined when HBeAg seroconversion occurred at follow-up visit end.
# All statistic methods were performed according to those described in Example 4.
structure (smiles),measurement,setting,value
CC(C)(C)C(=O)OCOP(=O)(COCCn1cnc2c(N)ncnc21)OCOC(=O)C(C)(C)C [adefovir dipivoxil],average increase (bounce) of serum anti-HBc level after therapy,108 weeks versus therapy end (96 weeks),0.29 log10 IU/ml
same,decrease of average HBV DNA level at follow-up end versus before therapy,"HBc-High group (baseline anti-HBc ≥29000 IU/ml, n=16)",3.48±2.24 log10 copies/mL
same,decrease of average HBV DNA level at follow-up end versus before therapy,"HBc-Low group (baseline anti-HBc <29000 IU/ml, n=33)",1.69±2.05 log10 copies/mL
same,therapeutic effective rate (HBeAg seroconversion at follow-up visit end),"all 49 patients, 10 mg/day for 96 weeks, follow-up 12 weeks after stop",18.4%
same,response rate (HBeAg seroconversion after therapy),baseline anti-HBc 9000-29000 IU/ml (n=19),10.5%
same,patients with HBeAg seroconversion after therapy,baseline anti-HBc <9000 IU/ml (16 patients as printed),none
same,response rate (HBeAg seroconversion after therapy),"baseline anti-HBc ≥29000 IU/ml, three-group analysis",43.8%
same,decline of average serum anti-HBc level per 12 weeks,baseline to 60 weeks after beginning of therapy,0.20±0.05 log10 IU/mL
same,"ratio of occurrence rates (Risk Ratio, RR) of HBeAg seroconversion between high and low anti-HBc groups",cutoff 29000 IU/ml baseline anti-HBc,7.22
same,effective rate (HBeAg seroconversion at follow-up visit end),patients with baseline anti-HBc greater than 29000 IU/ml (n=16),43.8%
same,effective rate (HBeAg seroconversion at follow-up visit end),patients with baseline anti-HBc less than 29000 IU/ml (n=33),6.1%
